Legend:
Test in all cases: AlphaScreen proximity-based integrin binding assay with TGF-b1 LAP
Conditions in all cases: values given as ranges
human integrin αVβ8 = human integrin αVβ8 (Homo sapiens, UniProt P06756+P26012)
Experimental: (§1) The biochemical potency of the disclosed compounds was determined using the AlphaScreen® (Perkin Elmer, Waltham, MA) proximity-based assay as described previously (Ullman E F et al., Luminescent oxygen channeling immunoassay: Measurement of particle binding kinetics by chemiluminescence. Proc. Natl. Acad. Sci. USA, Vol. 91, pp. 5426-5430, June 1994, herein incorporated by reference in its entirety). To gauge the potency of inhibitors of binding to each of human integrins αVβ1, αVβ6, and αVβ8, inhibitor compounds were independently incubated with one of αVβ1, αVβ6, or αVβ8, together with TGF-b1 LAP and biotinylated anti-LAP antibody plus acceptor and donor beads, following the manufacture's recommendations. The donor beads were coated with streptavidin. […] All incubations occurred at room temperatures in 50 mM Tris-HCl, pH 7.5, 0.1% BSA supplemented with 1 mM each CaCl2 and MgCl2.
(§2) The order of reagent addition was as follows:
(§3) 1. αVβ1, αVβ6, or αVβ8 integrin, test inhibitor compound, LAP, biotinylated anti-LAP antibody and acceptor beads were all added together.
(§4) 2. After 2 hours, donor beads were added. After another 30 minute incubation, samples were then read.
(§5) Integrin binding was evaluated by exciting donor beads at 680 nm, and measuring the fluorescent signal produced, between 520-620 nm, using a Biotek Instruments (Winooski, VT, USA) SynergyNeo2 multimode plate reader. Compound potency was assessed by determining inhibitor concentrations required to reduce fluorescent light output by 50%. Data analysis for IC50 determinations was carried out by nonlinear four parameter logistic regression analysis using Dotmatics ELN Software (Core Informatics Inc., Branford, Ct). […] Comp #in the Table and Examples below refers to the compound of the corresponding Example number as described in the Synthetic Examples.

human integrin αVβ6 = human integrin αVβ6 (Homo sapiens, UniProt P06756+P18564)
Experimental: as §1, §2, §3, §4, §5

human integrin αVβ1 = human integrin αVβ1 (Homo sapiens, UniProt P05556+P06756)
Experimental: as §1, §2, §3, §4, §5

Sequence of human integrin αVβ1 (P06756 31-992 limits assumed): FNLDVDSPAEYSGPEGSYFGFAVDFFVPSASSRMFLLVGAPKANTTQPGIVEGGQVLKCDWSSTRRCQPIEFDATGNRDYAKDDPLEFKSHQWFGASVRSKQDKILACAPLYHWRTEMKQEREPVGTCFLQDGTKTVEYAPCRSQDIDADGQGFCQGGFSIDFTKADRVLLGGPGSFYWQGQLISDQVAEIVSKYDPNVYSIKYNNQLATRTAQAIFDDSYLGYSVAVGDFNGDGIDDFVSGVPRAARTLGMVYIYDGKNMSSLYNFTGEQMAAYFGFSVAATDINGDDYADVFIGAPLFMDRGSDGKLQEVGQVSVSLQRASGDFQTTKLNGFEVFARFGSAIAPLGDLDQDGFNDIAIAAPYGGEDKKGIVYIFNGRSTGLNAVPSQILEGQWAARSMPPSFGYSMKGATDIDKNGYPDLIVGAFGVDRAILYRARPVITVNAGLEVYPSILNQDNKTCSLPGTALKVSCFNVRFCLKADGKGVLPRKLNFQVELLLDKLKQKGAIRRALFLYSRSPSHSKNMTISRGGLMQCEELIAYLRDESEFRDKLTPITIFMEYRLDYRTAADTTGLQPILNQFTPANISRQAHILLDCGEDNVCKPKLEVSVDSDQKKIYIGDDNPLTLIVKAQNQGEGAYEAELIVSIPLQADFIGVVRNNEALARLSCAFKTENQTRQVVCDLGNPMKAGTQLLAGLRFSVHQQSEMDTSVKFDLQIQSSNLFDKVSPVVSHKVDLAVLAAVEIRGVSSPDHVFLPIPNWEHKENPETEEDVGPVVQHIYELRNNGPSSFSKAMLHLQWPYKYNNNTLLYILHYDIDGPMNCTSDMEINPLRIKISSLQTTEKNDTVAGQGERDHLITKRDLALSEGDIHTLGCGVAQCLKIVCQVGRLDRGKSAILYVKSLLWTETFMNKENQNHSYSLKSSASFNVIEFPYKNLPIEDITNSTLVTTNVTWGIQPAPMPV
Sequence of human integrin αVβ1 (P05556 21-728 limits assumed): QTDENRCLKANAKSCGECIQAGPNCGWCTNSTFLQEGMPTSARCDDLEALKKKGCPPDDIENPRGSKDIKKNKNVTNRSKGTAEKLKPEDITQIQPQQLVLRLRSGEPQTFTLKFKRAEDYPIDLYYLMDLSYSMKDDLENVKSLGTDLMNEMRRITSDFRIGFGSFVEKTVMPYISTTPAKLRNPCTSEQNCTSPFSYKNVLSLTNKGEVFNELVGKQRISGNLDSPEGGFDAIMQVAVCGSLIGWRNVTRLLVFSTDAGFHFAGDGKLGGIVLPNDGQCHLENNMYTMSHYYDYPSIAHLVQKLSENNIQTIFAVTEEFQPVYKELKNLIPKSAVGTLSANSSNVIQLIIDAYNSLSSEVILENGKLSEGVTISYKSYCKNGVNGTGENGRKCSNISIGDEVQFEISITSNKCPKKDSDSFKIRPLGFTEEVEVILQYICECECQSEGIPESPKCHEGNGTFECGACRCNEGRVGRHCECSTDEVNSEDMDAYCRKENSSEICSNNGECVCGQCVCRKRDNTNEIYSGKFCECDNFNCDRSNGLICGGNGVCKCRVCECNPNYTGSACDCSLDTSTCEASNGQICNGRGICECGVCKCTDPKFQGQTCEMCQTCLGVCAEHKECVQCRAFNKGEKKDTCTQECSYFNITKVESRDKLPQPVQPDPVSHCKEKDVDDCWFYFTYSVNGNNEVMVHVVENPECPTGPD
Sequence of human integrin αVβ8 (P06756 31-992 limits assumed): as the sequence (P06756 31-992 limits assumed) above
Sequence of human integrin αVβ8 (P26012 43-684 limits assumed): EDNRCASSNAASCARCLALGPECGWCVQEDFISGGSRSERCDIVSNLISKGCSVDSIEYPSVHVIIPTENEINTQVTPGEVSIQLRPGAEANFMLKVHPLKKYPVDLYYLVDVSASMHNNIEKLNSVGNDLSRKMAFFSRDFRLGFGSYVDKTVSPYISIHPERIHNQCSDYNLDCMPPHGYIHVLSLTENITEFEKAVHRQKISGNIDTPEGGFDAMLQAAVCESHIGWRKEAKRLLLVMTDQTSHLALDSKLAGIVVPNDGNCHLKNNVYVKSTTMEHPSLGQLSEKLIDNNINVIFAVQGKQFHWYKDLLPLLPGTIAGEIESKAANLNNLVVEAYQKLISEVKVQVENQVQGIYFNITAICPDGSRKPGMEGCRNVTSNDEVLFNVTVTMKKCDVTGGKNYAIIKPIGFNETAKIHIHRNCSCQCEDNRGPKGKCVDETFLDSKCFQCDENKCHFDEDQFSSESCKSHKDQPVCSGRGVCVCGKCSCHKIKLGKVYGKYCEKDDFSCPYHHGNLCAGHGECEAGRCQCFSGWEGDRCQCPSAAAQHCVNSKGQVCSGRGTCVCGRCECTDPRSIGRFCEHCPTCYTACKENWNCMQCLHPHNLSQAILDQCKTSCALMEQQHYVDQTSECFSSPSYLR
Sequence of human integrin αVβ6 (P06756 31-992 limits assumed): as the sequence (P06756 31-992 limits assumed) above
Sequence of human integrin αVβ6 (P18564 22-707 limits assumed): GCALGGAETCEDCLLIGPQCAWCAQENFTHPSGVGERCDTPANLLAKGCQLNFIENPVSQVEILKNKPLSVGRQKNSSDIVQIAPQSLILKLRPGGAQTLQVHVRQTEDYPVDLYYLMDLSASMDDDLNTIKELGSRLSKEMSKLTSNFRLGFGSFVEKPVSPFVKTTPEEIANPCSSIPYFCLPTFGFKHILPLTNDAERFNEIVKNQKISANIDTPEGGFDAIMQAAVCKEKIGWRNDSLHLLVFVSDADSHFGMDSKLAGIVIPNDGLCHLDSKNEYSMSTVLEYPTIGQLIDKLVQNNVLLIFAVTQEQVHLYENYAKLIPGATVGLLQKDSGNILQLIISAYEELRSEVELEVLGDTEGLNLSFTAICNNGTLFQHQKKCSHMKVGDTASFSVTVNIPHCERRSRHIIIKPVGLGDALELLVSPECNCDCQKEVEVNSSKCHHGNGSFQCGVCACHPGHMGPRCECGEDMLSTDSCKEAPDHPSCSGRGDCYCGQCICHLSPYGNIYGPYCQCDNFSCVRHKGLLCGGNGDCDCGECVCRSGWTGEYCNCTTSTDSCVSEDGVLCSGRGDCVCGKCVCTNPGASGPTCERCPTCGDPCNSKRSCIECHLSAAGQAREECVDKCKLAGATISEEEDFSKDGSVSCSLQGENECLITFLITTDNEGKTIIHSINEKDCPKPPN

SMILES: COc1cccc(C2(C(=O)N[C@@H](CCOCCCCc3ccc4c(n3)NCCC4)C(=O)O)CCOCC2)c1 [Compound 87, N-(4-(3-methoxyphenyl)tetrahydro-2H-pyran-4-carbonyl)-O-(4-(5,6,7,8-tetrahydro-1,8-naphthyridin-2-yl)butyl)-L-homoserine]
- IC50 (human integrin αVβ8): < 50 nM
- IC50 (human integrin αVβ6): > 500 nM
- IC50 (human integrin αVβ1): < 50 nM

SMILES: COc1cccc(C2(C(=O)N[C@@H](CCOCCCCc3ccc4c(n3)NCCC4)C(=O)O)CC2)n1 [Compound 18, N-(1-(6-methoxypyridin-2-yl)cyclopropane-1-carbonyl)-O-(4-(5,6,7,8-tetrahydro-1,8-naphthyridin-2-yl)butyl)-L-homoserine]
- IC50 (human integrin αVβ8): < 50 nM
- IC50 (human integrin αVβ6): ≥ 500 nM
- IC50 (human integrin αVβ1): 50 to 150 nM

SMILES: Cc1ncc(Cl)c(C2(C(=O)N[C@@H](CCOCCCCc3ccc4c(n3)NCCC4)C(=O)O)CC2)n1 [Compound 73, N-(1-(5-chloro-2-methylpyrimidin-4-yl)cyclopropane-1-carbonyl)-O-(4-(5,6,7,8-tetrahydro-1,8-naphthyridin-2-yl)butyl)-L-homoserine]
- IC50 (human integrin αVβ8): < 50 nM
- IC50 (human integrin αVβ6): ≥ 500 nM
- IC50 (human integrin αVβ1): < 50 nM

SMILES: COc1ncccc1C1(C(=O)N[C@@H](CCOCCCCc2ccc3c(n2)NCCC3)C(=O)O)CC1 [Compound 35, N-(1-(2-methoxypyridin-3-yl)cyclopropane-1-carbonyl)-O-(4-(5,6,7,8-tetrahydro-1,8-naphthyridin-2-yl)butyl)-L-homoserine]
- IC50 (human integrin αVβ8): 50 to 150 nM
- IC50 (human integrin αVβ6): ≥ 500 nM
- IC50 (human integrin αVβ1): 50 to 150 nM

SMILES: COc1nccnc1C1(C(=O)N[C@@H](CCOCCCCc2ccc3c(n2)NCCC3)C(=O)O)CC1 [Compound 50, N-(1-(3-methoxypyrazin-2-yl)cyclopropane-1-carbonyl)-O-(4-(5,6,7,8-tetrahydro-1,8-naphthyridin-2-yl)butyl)-L-homoserine]
- IC50 (human integrin αVβ8): 50 to 150 nM
- IC50 (human integrin αVβ6): ≥ 500 nM
- IC50 (human integrin αVβ1): < 50 nM

SMILES: Cn1nccc1C1(C(=O)N[C@@H](CCOCCCCc2ccc3c(n2)NCCC3)C(=O)O)CC1 [Compound 54, N-(1-(1-methyl-1H-pyrazol-5-yl)cyclopropane-1-carbonyl)-O-(4-(5,6,7,8-tetrahydro-1,8-naphthyridin-2-yl)butyl)-L-homoserine]
- IC50 (human integrin αVβ8): 50 to 150 nM
- IC50 (human integrin αVβ6): ≥ 500 nM
- IC50 (human integrin αVβ1): < 50 nM

SMILES: C[C@H](C(=O)N[C@@H](CCOCCCCc1ccc2c(n1)NCCC2)C(=O)O)c1ccccc1 [Compound 3, N—((S)-2-phenylpropanoyl)-O-(4-(5,6,7,8-tetrahydro-1,8-naphthyridin-2-yl)butyl)-L-homoserine]
- IC50 (human integrin αVβ8): < 50 nM
- IC50 (human integrin αVβ6): ≥ 500 nM
- IC50 (human integrin αVβ1): < 50 nM

SMILES: O=C(O)[C@H](CCOCCCCc1ccc2c(n1)NCCC2)NC(=O)C1(c2ccccc2F)CC1 [Compound 9, N-(1-(2-fluorophenyl)cyclopropane-1-carbonyl)-O-(4-(5,6,7,8-tetrahydro-1,8-naphthyridin-2-yl)butyl)-L-homoserine]
- IC50 (human integrin αVβ8): < 50 nM
- IC50 (human integrin αVβ6): ≥ 500 nM
- IC50 (human integrin αVβ1): < 50 nM

SMILES: O=C(O)[C@H](CCOCCCCc1ccc2c(n1)NCCC2)NC(=O)C1(c2cn[nH]c2Cl)CC1 [Compound 74, N-(1-(5-chloro-1H-pyrazol-4-yl)cyclopropane-1-carbonyl)-O-(4-(5,6,7,8-tetrahydro-1,8-naphthyridin-2-yl)butyl)-L-homoserine]
- IC50 (human integrin αVβ8): < 50 nM
- IC50 (human integrin αVβ6): ≥ 500 nM
- IC50 (human integrin αVβ1): < 50 nM

SMILES: O=C(O)[C@H](CCOCCCCc1ccc2c(n1)NCCC2)NC(=O)C1(c2ncccc2CF)CC1 [Compound 52, N-(1-(3-(fluoromethyl)pyridin-2-yl)cyclopropane-1-carbonyl)-O-(4-(5,6,7,8-tetrahydro-1,8-naphthyridin-2-yl)butyl)-L-homoserine]
- IC50 (human integrin αVβ8): < 50 nM
- IC50 (human integrin αVβ6): ≥ 500 nM
- IC50 (human integrin αVβ1): < 50 nM

SMILES: O=C(O)[C@H](CCOCCCCc1ccc2c(n1)NCCC2)NC(=O)C1(c2c(Cl)cncc2Cl)CC1 [Compound 24, N-(1-(3,5-dichloropyridin-4-yl)cyclopropane-1-carbonyl)-O-(4-(5,6,7,8-tetrahydro-1,8-naphthyridin-2-yl)butyl)-L-homoserine]
- IC50 (human integrin αVβ8): < 50 nM
- IC50 (human integrin αVβ6): 50 to 150 nM
- IC50 (human integrin αVβ1): < 50 nM

SMILES: O=C(O)[C@H](CCOCCCCc1ccc2c(n1)NCCC2)NC(=O)C1(C(F)(F)F)CCCCC1 [Compound 84, O-(4-(5,6,7,8-tetrahydro-1,8-naphthyridin-2-yl)butyl)-N-(1-(trifluoromethyl)cyclohexane-1-carbonyl)-L-homoserine]
- IC50 (human integrin αVβ8): < 50 nM
- IC50 (human integrin αVβ6): 250 to 500 nM
- IC50 (human integrin αVβ1): < 50 nM

SMILES: O=C(O)[C@H](CCOCCCCc1ccc2c(n1)NCCC2)NC(=O)C1(n2c(=O)ccc3ccccc32)CC1 [Compound 90, N-(1-(2-oxoquinolin-1(2H)-yl)cyclopropane-1-carbonyl)-O-(4-(5,6,7,8-tetrahydro-1,8-naphthyridin-2-yl)butyl)-L-homoserine]
- IC50 (human integrin αVβ8): < 50 nM
- IC50 (human integrin αVβ6): > 500 nM
- IC50 (human integrin αVβ1): 50 to 150 nM

SMILES: Cn1cnc(Cl)c1C1(C(=O)N[C@@H](CCOCCCCc2ccc3c(n2)NCCC3)C(=O)O)CC1 [Compound 80, N-(1-(4-chloro-1-methyl-1H-imidazol-5-yl)cyclopropane-1-carbonyl)-O-(4-(5,6,7,8-tetrahydro-1,8-naphthyridin-2-yl)butyl)-L-homoserine]
- IC50 (human integrin αVβ8): < 50 nM
- IC50 (human integrin αVβ6): ≥ 500 nM
- IC50 (human integrin αVβ1): < 50 nM

SMILES: O=C(O)[C@H](CCOCCCCc1ccc2c(n1)NCCC2)NC(=O)C1(n2c(Cl)cccc2=O)CC1 [Compound 65, N-(1-(6-chloro-2-oxopyridin-1(2H)-yl)cyclopropane-1-carbonyl)-O-(4-(5,6,7,8-tetrahydro-1,8-naphthyridin-2-yl)butyl)-L-homoserine]
- IC50 (human integrin αVβ8): < 50 nM
- IC50 (human integrin αVβ6): ≥ 500 nM
- IC50 (human integrin αVβ1): < 50 nM

SMILES: O=C(O)[C@H](CCOCCCCc1ccc2c(n1)NCCC2)NC(=O)C1(c2c(Cl)cccc2Cl)CC1 [Compound 7, N-(1-(2,6-dichlorophenyl)cyclopropane-1-carbonyl)-O-(4-(5,6,7,8-tetrahydro-1,8-naphthyridin-2-yl)butyl)-L-homoserine]
- IC50 (human integrin αVβ8): < 50 nM
- IC50 (human integrin αVβ6): ≥ 500 nM
- IC50 (human integrin αVβ1): < 50 nM

SMILES: O=C(O)[C@H](CCOCCCCc1ccc2c(n1)NCCC2)NC(=O)C1(c2ncccc2C2CC2)CC1 [Compound 58, N-(1-(3-cyclopropylpyridin-2-yl)cyclopropane-1-carbonyl)-O-(4-(5,6,7,8-tetrahydro-1,8-naphthyridin-2-yl)butyl)-L-homoserine]
- IC50 (human integrin αVβ8): 150 to 250 nM
- IC50 (human integrin αVβ6): ≥ 500 nM
- IC50 (human integrin αVβ1): < 50 nM

SMILES: Cc1nc(C)c(C2(C(=O)N[C@@H](CCOCCCCc3ccc4c(n3)NCCC4)C(=O)O)CC2)c(Cl)n1 [Compound 60, N-(1-(4-chloro-2,6-dimethylpyrimidin-5-yl)cyclopropane-1-carbonyl)-O-(4-(5,6,7,8-tetrahydro-1,8-naphthyridin-2-yl)butyl)-L-homoserine]
- IC50 (human integrin αVβ8): < 50 nM
- IC50 (human integrin αVβ6): ≥ 500 nM
- IC50 (human integrin αVβ1): < 50 nM

SMILES: O=C(O)[C@H](CCOCCCCc1ccc2c(n1)NCCC2)NC(=O)C1(n2c(C3CC3)cccc2=O)CC1 [Compound 91, N-(1-(6-cyclopropyl-2-oxopyridin-1(2H)-yl)cyclopropane-1-carbonyl)-O-(4-(5,6,7,8-tetrahydro-1,8-naphthyridin-2-yl)butyl)-L-homoserine]
- IC50 (human integrin αVβ8): 50 to 150 nM
- IC50 (human integrin αVβ6): > 500 nM
- IC50 (human integrin αVβ1): < 50 nM

SMILES: O=C(O)[C@H](CCOCCCCc1ccc2c(n1)NCCC2)NC(=O)C1(c2[nH]cnc2Cl)CC1 [Compound 79, N-(1-(4-chloro-1H-imidazol-5-yl)cyclopropane-1-carbonyl)-O-(4-(5,6,7,8-tetrahydro-1,8-naphthyridin-2-yl)butyl)-L-homoserine]
- IC50 (human integrin αVβ8): < 50 nM
- IC50 (human integrin αVβ6): ≥ 500 nM
- IC50 (human integrin αVβ1): < 50 nM

SMILES: Cc1ncnc(O)c1C1(C(=O)N[C@@H](CCOCCCCc2ccc3c(n2)NCCC3)C(=O)O)CC1 [Compound 102, N-(1-(4-hydroxy-6-methylpyrimidin-5-yl)cyclopropane-1-carbonyl)-O-(4-(5,6,7,8-tetrahydro-1,8-naphthyridin-2-yl)butyl)-L-homoserine]
- IC50 (human integrin αVβ8): 50 to 150 nM
- IC50 (human integrin αVβ6): > 500 nM
- IC50 (human integrin αVβ1): 50 to 150 nM

SMILES: O=C(Cc1ccccc1)N[C@@H](CCOCCCCc1ccc2c(n1)NCCC2)C(=O)O [Compound 81, N-(2-phenylacetyl)-O-(4-(5,6,7,8-tetrahydro-1,8-naphthyridin-2-yl)butyl)-L-homoserine]
- IC50 (human integrin αVβ8): 50 to 150 nM
- IC50 (human integrin αVβ6): ≥ 500 nM
- IC50 (human integrin αVβ1): < 50 nM

SMILES: [2H]C1([2H])C([2H])([2H])C1(C(=O)N[C@@H](CCOCCCCc1ccc2c(n1)NCCC2)C(=O)O)c1c(C)ncnc1Cl [Compound 104, N-(1-(4-chloro-6-methylpyrimidin-5-yl)cyclopropane-1-carbonyl-2,2,3,3-d4)-O-(4-(5,6,7,8-tetrahydro-1,8-naphthyridin-2-yl)butyl)-L-homoserine]
- IC50 (human integrin αVβ8): < 50 nM
- IC50 (human integrin αVβ6): > 500 nM
- IC50 (human integrin αVβ1): < 50 nM
